Reference: patent publication US8481546B2, “CGRP receptor antagonist” (Bristol-Myers Squibb Company, priority 2010, dated 2013)
Read-outs that look alike come from different tables or passages of the source.

Key:
[1] = test system: olfactory epithelium (nasal turbinates); format: in vivo, rats
Source text: Compound I and Compound II were also compared directly for intranasal irritation. […] The only endpoint evaluated in this study was histological evaluation of the nasal turbinates.

[2] = Pharmacokinetics in the rabbit after IV and IN administration; format: in vivo, New Zealand White rabbits
Protocol: The feasibility of nasal delivery was assessed in the IN rabbit model by comparing the plasma concentration-time profiles and pharmacokinetic parameters (Cmax, Tmax, AUC and bioavailability) for nasally delivered Compound I to that delivered by the IV route. The dosing solution concentration and delivery volume are included in the data tables for each study. Vehicle compositions are described in the footnotes below the table.
Groups of three male New Zealand White rabbits, ranging in weight from 3-3.5 kg, received a single dose of drug in one of the following treatments: 0.5 mg/kg IV bolus injection over 30 seconds, or 0.3-3 mg/kg IN administered with a syringe microsprayer. Prior to IN dosing, rabbits were lightly sedated to effect with the inhalant anesthetic, Sevoflurane. The rabbits regained consciousness in 2-5 min. Serial blood samples were collected in heparin-containing vacutainers at predose, 2, 5, 10, 15, 30 min and 1, 2, 4, 6, and 24 hours post-dose. Blood samples were immediately centrifuged at 4° C. and the separated plasma stored at −80° C. until further analysis by the LC/MS/MS assay.

[3] = test system: CGRP-induced increases in marmoset facial blood flow; experiment: Marmoset facial blood flow; format: in vivo, common marmosets (Callithrix jacchus)
Protocol: To evaluate the in vivo efficacy of novel CGRP receptor antagonists, marmosets receive a series of four intravenous injections of hαCGRP (at 45 min intervals). The first serves as a baseline control, and is followed by subcutaneous delivery of test article. The subsequent three CGRP challenges provide an assessment of functional CGRP antagonism in vivo.
Adult male and female common marmosets (Callithrix jacchus) weighing 350-650 g serve as subjects.
Animals are anesthetized by isoflurane inhalation in an induction chamber (4-5% rapid induction, maintained with 1-2.5%; Solomon et al., 1999). Anesthesia is maintained by delivering a constant supply of air:oxygen (50:50) and isoflurane via intubation and ventilation (with blood gas monitoring). Body temperature is maintained at 38±0.5° C. by placement on an automated temperature controlled surface with rectal probe. A small area of fur (approx. 1.5 cm square) is removed from one or both sides of the face by application of a depilatory cream and/or shaving. Surgical areas are clipped and prepared with betadine. An IV line is placed in the saphenous vein for the administration of test compounds and the CGRP receptor agonist hαCGRP. Additionally this IV line provides for withdrawal of blood samples (max 2.5 ml, 10%) for blood gas monitoring and analysis of compound plasma levels. A solution of 5% dextrose is administered IV in order to maintain blood sugar levels. Anesthesia depth is monitored by measuring blood pressure and heart rate using a non-invasive arm cuff method and a pulse oximeter, respectively. […] Microvascular blood flow is monitored by attaching a self adhesive laser Doppler flow probe to the facial skin. The probe records the number of red blood cells crossing the path of two laser beams, multiplied by their velocity (reported as changes in flux).
Test compounds are administered SC (0.1-0.6 ml/kg) in the nape of the neck. The CGRP-receptor agonist, hαCGRP is delivered IV (1 ml/kg) at a dose of 10 μg/kg.
To assess in vivo efficacy and duration of action, a control increase in facial blood flow is induced by administration of hαCGRP (10 μg/kg IV) 30 min prior (−0.5 hr) to drug delivery. Compound I is then administered at time zero (0 min) and repeat hαCGRP are delivered at 45 min intervals for ˜2 hr (data collected at 0.25, 1 and 1.75 hrs post-dose). Compound I is dosed at 0.003, 0.01 and 0.03 mg/kg, SC. Plasma samples are obtained just before each hαCGRP administration. Following testing, animals are returned to the transport cage which is placed on a temperature controlled surface that keep the animals warm until fully awake and ambulatory. Animals may be tested again after a 14-21 day rest and washout period.

[4] = test system: olfactory epithelium (nasal tissues); experiment: One-week comparative intranasal irritation study in rats (Compound I vs Compound III): nasal histology and tolerability; format: in vivo; settings: for Olfactory Epithelial Atrophy, incidence of severity Marked (number of rats) / Olfactory Epithelial Atrophy, incidence of severity Mild (number of rats) / Olfactory Epithelial Atrophy, incidence of severity Minimal (number of rats) / Olfactory Epithelial Atrophy, incidence of severity Moderate (number of rats) / Olfactory Epithelial Atrophy, incidence of severity None (number of rats): 1 week
Protocol: This study was conducted to compare potential nasal irritation of Compound I to Compound III when given intranasally to male rats for 1 week. Male rats (10/group) were instilled intranasally with Compound I or Compound III solutions ([…] in 225 mM succinic acid, 0.02% benzalkonium chloride, 1.25% anhydrous dextrose, pH 5.8-6.2) once daily at a dose volume of 100 μL/nostril. Using this dosing paradigm, fixed doses of 5, 15 or 35 mg of test article were delivered daily. As a consequence, dosages normalized to body weight decreased with time as the rats grew. One control group was given succinate vehicle and a sham control group was given saline by intranasal instillation. Parameters evaluated included clinical observations, body weight, food consumption, toxicokinetics, and histological evaluation of nasal tissues.

[5] = Intravenous exposure in rats (reference for bioavailability); settings: rat, in vivo, intravenous administration of 1 mg/kg, read-out: AUC0-24 h
[6] = 25 μL/nostril, 75 mg/ml, 3.75 mg/rat/day (0.268 mg/cm^2)
[7] = 25 μL/nostril, 175 mg/ml, 8.75 mg/rat/day (0.625 mg/cm^2)
[8] = 100 μL/nostril, 175 mg/ml, 35 mg/rat/day (2.500 mg/cm^2)
[9] = male, New Zealand White, plasma, IV 0.5 mg/kg
[10] = marmoset, efficacy vs. exposure
[11] = nasal instillation 5 mg (0.357 mg/cm^2) once daily
[12] = nasal instillation 15 mg (1.07 mg/cm^2) once daily
[13] = nasal instillation 35 mg (2.50 mg/cm^2) once daily

## Cc1cc(C[C@@H](NC(=O)N2CCC(c3cc4ccccc4[nH]c3=O)CC2)C(=O)N2CCN(C3CCN(C)CC3)CC2)cc2cn[nH]c12 [Compound I, (R)—N-(3-(7-methyl-1H-indazol-5-yl)-1-(4-(1-methylpiperidin-4-yl)piperazin-1-yl)-1-oxopropan-2-yl)-4-(2-oxo-1,2-dihydroquinolin-3-yl)piperidine-1-carboxamide]
[1]; 12.5 μL/nostril, 75 mg/ml, 1.875 mg/rat/day (0.134 mg/cm^2)
  Olfactory epithelial toxicity, number of animals with severity None: 5
[1]; 12.5 μL/nostril, 175 mg/ml, 4.375 mg/rat/day (0.313 mg/cm^2)
  Olfactory epithelial toxicity, number of animals with severity None: 5
[1]; [6]
  Olfactory epithelial toxicity, number of animals with severity Minimal: 3
  Olfactory epithelial toxicity, number of animals with severity None: 2
[1]; [7]
  Olfactory epithelial toxicity, number of animals with severity Minimal: 1
  Olfactory epithelial toxicity, number of animals with severity None: 4
[1]; 100 μL/nostril, 75 mg/ml, 15 mg/rat/day (1.071 mg/cm^2)
  Olfactory epithelial toxicity, number of animals with severity Slight: 5
[1]; [8]
  Olfactory epithelial toxicity, number of animals with severity Mild: 4
  Olfactory epithelial toxicity, number of animals with severity Slight: 1
[2]; IN
  time drug was detected in plasma post-dose: at least 6 h
[2]; IN, high dose
  time drug was detected in plasma post-dose: up to 24 hr
[2]; IN, measured within 5 min
  Plasma levels: > 10 nM
[2]; [9]
  MRT: 22.8 ± 9 min
  clearance: 7.9 ± 3 mL/min/kg
  half-life: 78 ± 15.6 min
[2]; male, New Zealand White, plasma, IV 0.5 mg/kg, n = 3, Mean ± SD
  AUC: 1.8 ± 0.58 µM·h
[2]; male, New Zealand White, plasma, IV 0.5 mg/kg, read-out: Vss
  Vd: 0.16 ± 0.01 L/kg
[2]; male, New Zealand White, plasma, inhaled or intranasal, 0.3 mg/kg, IN low dose 0.3 mg/kg (10 mg/ml), n = 3, Mean ± SD
  Cmax: 120 nM
[2]; male, New Zealand White, plasma, inhaled or intranasal, 0.3 mg/kg, IN low dose 0.3 mg/kg, read-out: Bioavailability (F %)
  bioavailability: 12.5 ± 6.56%
[2]; male, New Zealand White, plasma, inhaled or intranasal, 1 mg/kg, IN mid-dose 1.0 mg/kg (30 mg/ml), n = 3, Mean ± SD
  Cmax: 550 ± 260 nM
[2]; male, New Zealand White, plasma, inhaled or intranasal, 1 mg/kg, IN mid-dose 1.0 mg/kg, read-out: Bioavailability (F %)
  bioavailability: 18.8 ± 8.96%
[2]; male, New Zealand White, plasma, inhaled or intranasal, 3 mg/kg, IN high dose 3.0 mg/kg (100 mg/ml), n = 3, Mean ± SD
  Cmax: 2030 ± 1000 nM
[2]; male, New Zealand White, plasma, inhaled or intranasal, 3 mg/kg, IN high dose 3.0 mg/kg, read-out: Bioavailability (F %)
  bioavailability: 30.2 ± 10.8%
[2]; male, New Zealand White, plasma, inhaled or intranasal, 3 mg/kg, IN, range over 0.3, 1, and 3 mg/kg
  Cmax: 120 to 2000 nM
[2]; male, New Zealand White, plasma, inhaled or intranasal, 3 mg/kg, IN, range over 0.3, 1, and 3 mg/kg, read-out: absolute bioavailability
  bioavailability: 13 to 30%
[2]; male, New Zealand White, plasma, inhaled or intranasal, IN high dose 3.0 mg/kg (100 mg/ml), n = 3, Mean ± SD
  AUC: 3.27 ± 1.17 µM·h
[2]; male, New Zealand White, plasma, inhaled or intranasal, IN high dose 3.0 mg/kg, read-out: Tmax
  Tmax: 19.8 min
[2]; male, New Zealand White, plasma, inhaled or intranasal, IN low dose 0.3 mg/kg (10 mg/ml), n = 3, Mean ± SD
  AUC: 0.14 ± 0.07 µM·h
[2]; male, New Zealand White, plasma, inhaled or intranasal, IN low dose 0.3 mg/kg, read-out: Tmax
  Tmax: 15 min
[2]; male, New Zealand White, plasma, inhaled or intranasal, IN mid-dose 1.0 mg/kg (30 mg/ml), n = 3, Mean ± SD
  AUC: 0.69 ± 0.33 µM·h
[2]; male, New Zealand White, plasma, inhaled or intranasal, IN mid-dose 1.0 mg/kg, read-out: Tmax
  Tmax: 15 min
[2]; male, New Zealand White, plasma, inhaled or intranasal, IN, all doses studied, read-out: time to reach peak concentrations (Tmax)
  Tmax: 12 to 18 min
[2]; male, New Zealand White, plasma, iv, 0.5 mg/kg, IV 0.5 mg/kg, n = 3, Mean ± SD
  Cmax: 13700 ± 1800 nM
[3]; 0.003 mg/kg SC, at 0.25 hr
  inhibition of CGRP-induced increases in facial blood flow: 20%
[3]; 0.003 mg/kg SC, later test times
  inhibition of CGRP-induced increases in facial blood flow: no effect
[3]; 0.01 mg/kg SC, across all post-dose test times
  inhibition of CGRP-induced increases in facial blood flow: 35-40%
[3]; 0.03 mg/kg SC, at 0.25, 1 and 1.75 hr post-dose
  inhibition of CGRP-induced increases in facial blood flow: 53-80%
[3]; [10]
  plasma levels associated with maximal efficacy: ≥ 25 nM
  plasma levels associated with significant in vivo efficacy: ≥ 8 nM
[4]; male rats, 5, 15 or 35 mg once daily for 1 week
  tolerability of intranasal administration: well tolerated
[4]; [11]
  Olfactory Epithelial Atrophy, incidence of severity Marked (number of rats): 0
  Olfactory Epithelial Atrophy, incidence of severity Mild (number of rats): 0
  Olfactory Epithelial Atrophy, incidence of severity Minimal (number of rats): 1
  Olfactory Epithelial Atrophy, incidence of severity Moderate (number of rats): 0
  Olfactory Epithelial Atrophy, incidence of severity None (number of rats): 8
[4]; [12]
  Olfactory Epithelial Atrophy, incidence of severity Marked (number of rats): 0
  Olfactory Epithelial Atrophy, incidence of severity Mild (number of rats): 2
  Olfactory Epithelial Atrophy, incidence of severity Minimal (number of rats): 6
  Olfactory Epithelial Atrophy, incidence of severity Moderate (number of rats): 0
  Olfactory Epithelial Atrophy, incidence of severity None (number of rats): 1
[4]; [13]
  Olfactory Epithelial Atrophy, incidence of severity Marked (number of rats): 0
  Olfactory Epithelial Atrophy, incidence of severity Mild (number of rats): 2
  Olfactory Epithelial Atrophy, incidence of severity Minimal (number of rats): 3
  Olfactory Epithelial Atrophy, incidence of severity Moderate (number of rats): 0
  Olfactory Epithelial Atrophy, incidence of severity None (number of rats): 4
[5]
  AUC(0-t): 7.7 µM·h
